In one data set the test system is M. tuberculosis H37Rv. Description: MIC90 against M. tuberculosis in liquid medium. The data set is classed as cell-based, Mycobacterium tuberculosis. The conditions noted are these: liquid medium 7H9-Tw-OADC, aerobic, 5 days, average ± SD of two independent experiments; for MIC90: Mycobacterium tuberculosis, H37RV, 120 h, read-out: MIC (MIC90, minimum concentration required to inhibit growth of M. tuberculosis by 90%).

Another data set relates to HepG2 cells. Description: Cytotoxicity against HepG2 cell line (CellTiter-Glo). The data set is classed as cell-based. The conditions noted are these: for Selectivity index (SI) = IC50/MIC90: HepG2 IC50 / M. tuberculosis MIC90; for IC50: Homo sapiens, 48 h, HepG2, 2 days incubation, read-out: IC50 (concentration required to reduce the viability of HepG2 cells by 50%). On the technique in general: In ATP-based viability assays light output follows the ATP content of the culture.

In brackets after ≈: the same amount, converted by molar mass.

With `COc1ccc(CCNc2cc(-c3ccccc3)nc3ncnn23)cc1` [Compound 1, N-(4-methoxyphenethyl)-5-phenyl-[1,2,4]triazolo[1,5-a]pyrimidin-7-amine], in the data set with M. tuberculosis H37Rv, the MIC90 stood at 3.1 µM (≈ 1.07 µg/mL) and the “MIC (MIC90, minimum concentration required to inhibit growth of M. tuberculosis by 90%)” value was found to be 3.1 ± 1.3 µM. In the data set on HepG2 cells, the “Selectivity index (SI) = IC50/MIC90” value is above 32 and the IC50 was above 100 µM.
Regarding `COc1ccc(CCNc2cc(-c3ccc(OC)cc3)nc3ncnn23)cc1` [Compound 7, N-(4-Methoxyphenethyl)-5-(4-methoxyphenyl)-[1,2,4]triazolo[1,5-a]pyrimidin-7-amine], the melting point fell in the range of 130 to 131 °C. Also, the MIC90 in the data set with M. tuberculosis H37Rv is above 20 µM. Further, the IC50 in the data set on HepG2 cells is above 100 µM.
`COc1ccc(CCNc2cc(-c3ccccc3OC)nc3ncnn23)cc1` [Compound 8, N-(4-Methoxyphenethyl)-5-(2-methoxyphenyl)-[1,2,4]triazolo[1,5-a]pyrimidin-7-amine] displayed a melting point of 148 to 149 °C. For the same compound, the MIC90 in the data set on M. tuberculosis H37Rv was above 20 µM. In the data set on HepG2 cells, the IC50 was 87 µM.
For `COc1ccc(CCNc2cc(-c3ccc(C)cc3)nc3ncnn23)cc1` [Compound 9, N-(4-Methoxyphenethyl)-5-(p-tolyl)-[1,2,4]triazolo[1,5-a]pyrimidin-7-amine] the same measures were 155 to 156 °C, above 20 µM and 37 µM.
For `CCc1ccc(-c2cc(NCCc3ccc(OC)cc3)n3ncnc3n2)cc1` [Compound 10, 5-(4-Ethylphenyl)-N-(4-methoxyphenethyl)-[1,2,4]triazolo[1,5-a]pyrimidin-7-amine], the MIC90 in the data set on M. tuberculosis H37Rv is above 20 µM. Further, the IC50 with HepG2 cells was above 100 µM.
Compound `COc1ccc(CCNc2cc(-c3ccc(Cl)cc3)nc3ncnn23)cc1` [Compound 11, 5-(4-Chlorophenyl)-N-(4-methoxyphenethyl)-[1,2,4]triazolo[1,5-a]pyrimidin-7-amine] gave a melting point of 178 to 180 °C. Further, the MIC90 with M. tuberculosis H37Rv was above 20 µM. Further, the IC50 in the data set on HepG2 cells amounted to 65 µM.
For the compound `COc1ccc(CCNc2cc(-c3ccccc3Cl)nc3ncnn23)cc1` [Compound 12, 5-(2-Chlorophenyl)-N-(4-methoxyphenethyl)-[1,2,4]triazolo[1,5-a]pyrimidin-7-amine], the MIC90 with M. tuberculosis H37Rv was above 20 µM. Besides, in the data set with HepG2 cells, the IC50 is above 100 µM.
On to `COc1ccc(CCNc2cc(-c3ccc(F)cc3)nc3ncnn23)cc1` [Compound 13, 5-(4-Fluorophenyl)-N-(4-methoxyphenethyl)-[1,2,4]triazolo[1,5-a]pyrimidin-7-amine], for which the melting point fell in the range of 153 to 155 °C. Also, the MIC90 with M. tuberculosis H37Rv stood at 4.4 ± 2 µM (≈ 1.6 µg/mL). The IC50 in the data set on HepG2 cells amounted to 89 µM.
On to `COc1ccc(CCNc2cc(-c3ccccc3F)nc3ncnn23)cc1` [Compound 14, 5-(2-Fluorophenyl)-N-(4-methoxyphenethyl)-[1,2,4]triazolo[1,5-a]pyrimidin-7-amine], for which the melting point lay in the range of 153 to 155 °C. Besides, the MIC90 with M. tuberculosis H37Rv was 3 ± 0.21 µM (≈ 1.09 µg/mL). Also, in the data set with HepG2 cells, the “Selectivity index (SI) = IC50/MIC90” value was above 30 and the IC50 was above 100 µM.
`COc1ccc(CCNc2cc(-c3ccc(C(F)(F)F)cc3)nc3ncnn23)cc1` [Compound 15, N-(4-Methoxyphenethyl)-5-(4-(trifluoromethyl)phenyl)-[1,2,4]triazolo[1,5-a]pyrimidin-7-amine] came in with a melting point of 191 to 193 °C. Further, in the data set with M. tuberculosis H37Rv, the MIC90 is above 20 µM. For the same compound, the IC50 with HepG2 cells is above 100 µM.
For `COc1ccc(CCNc2cc(-c3cccnc3)nc3ncnn23)cc1` [Compound 17, N-(4-Methoxyphenethyl)-5-(pyridin-3-yl)-[1,2,4]triazolo[1,5-a]pyrimidin-7-amine] the same measures were 152 to 153 °C, above 20 µM and above 100 µM.
For `COc1ccc(CCNc2cc(-c3ccncc3)nc3ncnn23)cc1` [Compound 18, N-(4-Methoxyphenethyl)-5-(pyridin-4-yl)-[1,2,4]triazolo[1,5-a]pyrimidin-7-amine] the same measures were 217 to 219 °C, above 20 µM and 69 µM.
For `COc1ccc(CCNc2cc(Cc3ccccc3)nc3ncnn23)cc1` [Compound 19, 5-Benzyl-N-(4-methoxyphenethyl)-[1,2,4]triazolo[1,5-a]pyrimidin-7-amine] the same measures were 119 to 121 °C, above 20 µM and 57 µM.
With `COc1ccc(CCNc2cc(C)nc3ncnn23)cc1` [Compound 20, N-(4-Methoxyphenethyl)-5-methyl-[1,2,4]triazolo[1,5-a]pyrimidin-7-amine], the melting point was 129 to 130 °C. In addition, the MIC90 in the data set on M. tuberculosis H37Rv is above 20 µM. The IC50 with HepG2 cells is above 100 µM.
For `CCc1cc(NCCc2ccc(OC)cc2)n2ncnc2n1` [Compound 21, 5-ethyl-N-(4-methoxyphenethyl)-[1,2,4]triazolo[1,5-a]pyrimidin-7-amine] the same measures were 70 to 72 °C, above 20 µM and above 100 µM.
As to `COc1ccc(CCNc2cc(C3CC3)nc3ncnn23)cc1` [Compound 22], the MIC90 with M. tuberculosis H37Rv is 5.8 ± 1.6 µM (≈ 1.79 µg/mL). Besides, in the data set on HepG2 cells, the “Selectivity index (SI) = IC50/MIC90” value is above 17 and the IC50 was above 100 µM.
In turn, `COc1ccc(CCNc2cc(C3CCC3)nc3ncnn23)cc1` [Compound 23, 5-Cyclobutyl-N-(4-methoxyphenethyl)-[1,2,4]triazolo[1,5-a]pyrimidin-7-amine] had a melting point of 99 to 100 °C. For the same compound, the MIC90 in the data set on M. tuberculosis H37Rv was 2.9 ± 0.71 µM (≈ 0.938 µg/mL). Moreover, in the data set with HepG2 cells, the “Selectivity index (SI) = IC50/MIC90” value is on record as above 34 and the IC50 is above 100 µM.
In turn, `COc1ccc(CCNc2cc(C3CCCC3)nc3ncnn23)cc1` [Compound 24, 5-Cyclopentyl-N-(4-methoxyphenethyl)-[1,2,4]triazolo[1,5-a]pyrimidin-7-amine] gave a melting point of 99 to 100 °C. Also, the MIC90 in the data set on M. tuberculosis H37Rv worked out at 5.5 ± 0.07 µM (≈ 1.86 µg/mL). Also, in the data set with HepG2 cells, the “Selectivity index (SI) = IC50/MIC90” value was 17 and the IC50 came to 95 µM.
Compound `COc1ccc(CCNc2cc(C3CCCCC3)nc3ncnn23)cc1` [Compound 25, 5-Cyclohexyl-N-(4-methoxyphenethyl)-[1,2,4]triazolo[1,5-a]pyrimidin-7-amine] had a melting point of 193 to 194 °C. In the data set with M. tuberculosis H37Rv, the MIC90 is above 20 µM. Further, the IC50 in the data set on HepG2 cells came out at 47 µM.
The like results for `c1ccc(-c2ccn3ncnc3n2)cc1` [Compound 27, 5-Phenyl-[1,2,4]triazolo[1,5-a]pyrimidine] were, in that order, 179 to 181 °C, above 20 µM and above 20 µM.
The like results for `Nc1cc(-c2ccccc2)nc2ncnn12` [Compound 28, 5-Phenyl-[1,2,4]triazolo[1,5-a]pyrimidin-7-amine] were, in that order, 302 to 304 °C, above 20 µM and above 20 µM.
For `CNc1cc(-c2ccccc2)nc2ncnn12` [Compound 29, N-Methyl-5-phenyl-[1,2,4]triazolo[1,5-a]pyrimidin-7-amine] the same measures were 200 to 202 °C, above 20 µM and above 20 µM.
As for `CCNc1cc(-c2ccccc2)nc2ncnn12` [Compound 30, N-Ethyl-5-phenyl-[1,2,4]triazolo[1,5-a]pyrimidin-7-amine], the melting point was 170 to 172 °C. Moreover, the MIC90 with M. tuberculosis H37Rv was above 20 µM. Also, in the data set on HepG2 cells, the IC50 came out at 37 µM.
Consider `CCCNc1cc(-c2ccccc2)nc2ncnn12` [Compound 31, 5-Phenyl-N-propyl-[1,2,4]triazolo[1,5-a]pyrimidin-7-amine], for which the melting point lay in the range of 139 to 140 °C. Besides, in the data set with M. tuberculosis H37Rv, the MIC90 is above 20 µM. Besides, the IC50 in the data set with HepG2 cells was found to be 94 µM.
Compound `CCCCNc1cc(-c2ccccc2)nc2ncnn12` [Compound 32, N-Butyl-5-phenyl-[1,2,4]triazolo[1,5-a]pyrimidin-7-amine] came in with a melting point of 125 to 126 °C. Further, the MIC90 in the data set on M. tuberculosis H37Rv was above 20 µM. Further, in the data set with HepG2 cells, the IC50 stood at 98 µM.
The like results for `COCCNc1cc(-c2ccccc2)nc2ncnn12` [Compound 33, N-(2-Methoxyethyl)-5-phenyl-[1,2,4]triazolo[1,5-a]pyrimidin-7-amine] were, in that order, 116 to 118 °C, above 20 µM and above 100 µM.
The like results for `c1ccc(-c2cc(NC3CC3)n3ncnc3n2)cc1` [Compound 34, N-Cyclopropyl-5-phenyl-[1,2,4]triazolo[1,5-a]pyrimidin-7-amine] were, in that order, 193 to 195 °C, above 20 µM and above 100 µM.
Take `FC(F)(F)c1ccc(CCNc2cc(-c3ccccn3)nc3ncnn23)cc1` [Compound 58, 5-(Pyridin-2-yl)-N-(4-(trifluoromethyl)phenethyl)-[1,2,4]triazolo[1,5-a]pyrimidin-7-amine]: in the data set with M. tuberculosis H37Rv, the MIC90 came out at 0.98 ± 0.4 µM (≈ 0.377 µg/mL). For the same compound, in the data set with HepG2 cells, the “Selectivity index (SI) = IC50/MIC90” value is on record as above 119 and the IC50 was above 100 µM.
For `Clc1ccc(CCNc2cc(-c3ccccn3)nc3ncnn23)cc1` [Compound 60, N-(4-Chlorophenethyl)-5-(pyridin-2-yl)-[1,2,4]triazolo[1,5-a]pyrimidin-7-amine] the same measures were 0.76 ± 0.25 µM (≈ 0.267 µg/mL), above 135 and above 100 µM.
Take `COc1ccc(C2CCCN(c3cc(-c4ccccn4)nc4ncnn34)C2)cc1` (stereo not drawn) [Compound 63, 7-(3-(4-Methoxyphenyl)piperidin-1-yl)-5-(pyridin-2-yl)-[1,2,4]triazolo[1,5-a]pyrimidine]: the MIC90 with M. tuberculosis H37Rv was above 20 µM. Moreover, in the data set on HepG2 cells, the IC50 came out at 16 µM.
For `COc1ccc(C2CN(c3cc(-c4ccccn4)nc4ncnn34)CCO2)cc1` (stereo not drawn) [Compound 64, 2-(4-Methoxyphenyl)-4-(5-(pyridin-2-yl)-[1,2,4]triazolo[1,5-a]pyrimidin-7-yl)morpholine] the same measures were above 20 µM and 50 µM.

As a reminder, the melting point is the temperature of the solid-liquid transition.

These data come from publication PMC5513444, “The synthesis and evaluation of triazolopyrimidines as anti-tubercular agents” (Bioorganic & Medicinal Chemistry, 2017).
